For orientation: half-life means how long it takes for the measured level to halve. A high value points to slow loss.

The test system of data set [1] is human whole blood. As to the kind of experiment: Imaging flow cytometry of platelet-leukocyte aggregates in whole blood. Type of data set: cell-based. To be noted: pre-incubation with physiological levels of xylitol, TRAP6 7.5 μM. Here is the method: Imaging flow cytometry was performed on an Amnis ImageStreamX MK II two-camera system using anti-CD45 AF488, anti-CD41 AF647 and anti-CD62P-PE. Details and the gating strategy are described in supplemental methods.
Whole blood collected from consented healthy volunteers was incubated with xylitol (30 or 100 μM) or vehicle for 30 min. Where indicated, the samples were then stimulated with 7.5 μM TRAP6 for 10 min. Blood samples were then incubated with anti-CD45 AF488 (Catalogue #FAB1430G, R&D Systems, MN, USA), anti-CD41 AF647 (Catalogue #303726, Biolegend, San Diego, CA, USA) and anti-CD62P-PE (Catalogue #555524, BD PharMingen, San Diego, CA, USA) for 20 min at room temperature in the dark. After gentle red blood cell lysis using VersaLyse Lysing solution (Catalogue #A09777, Beckman Coulter, Brea, California, USA), cells were gently spun down and resuspended in HBSS-BSA. Platelet leucocyte aggregates were measured on an Amnis ImageStreanX MK II two-camera system (Luminex, Austin, TX, USA). Data were analyzed using Amnis IDEAS software (Luminex, Austin, TX, USA).
IDEAS analysis was performed as follows. Gating out of focus events using Gradient RMS in the brightfield image. Gating on CD45+ events using the Intensity and Max Pixel features. Elimination of false positive CD45 events and selection of only true CD45+ cells using Intensity vs. Area of CD45+. […]
In general terms: Flow cytometry measures light scatter and fluorescence of single cells or particles in a stream.

The nature of data set [2]: Xylitol intervention study: postprandial plasma xylitol levels and elimination. Type of data set: in vivo. The method, then: A third xylitol intervention study (clinicaltrials.gov number: NCT04731363) included 10 prospectively recruited healthy volunteers (35±11 years of age, 50% male, nonsmokers without CVD, hypertension, or diabetes). Fasting (overnight) subjects were provided a standardized artificially sweetened beverage (300 mL) containing 30 g of xylitol dissolved in water with instructions to rapidly consume the drink (within 2 minutes). In the first part of xylitol ingestion studies, pharmacokinetics studies focused on post-prandial plasma levels and time course of elimination of xylitol. For LC-MS/MS analysis of xylitol, serial venous blood and urine sampling was performed at baseline, 30 min, 1 h, 4 h, 6 h and 24 h to establish postprandial peak levels and the time course of xylitol elimination in the first 4 subjects. After we noticed that xylitol levels were rapidly cleared with postprandial xylitol peak levels at 30 min after ingestion in all 4 subjects, we streamlined our protocol in the interest of being both practical and less demanding on subjects, and sampled blood and urine at baseline and after 30 min for the remainder of subjects.
Stable-isotope-dilution LC-MS/MS was developed to specifically quantify xylitol in human and mouse plasma, urine and feces (fecal pellets were dissolved in water and supernatant subjected to LC-MS/MS). Ice cold methanol (800 μL) and internal standard (^13C2-arabitol) were added to the plasma samples (20 μL) or urine (20 μL) previously diluted in MQ water, followed by vortexing and centrifuging (21,000×g; 4° C. for 15 min). The clear supernatant (800 μL) was transferred into a clean, labeled glass tubes (Borosilicate glass 12×75 mm) and dried in a speed vacuum concentrator (Speed vac plus, SC210, Thermo Sevant). Acetylation was used since xylitol is poorly ionizable in order to achieve better retention on the reverse phase column and separation from other structural isomers as well as better ionization to achieve better sensitivity. The dry residue was reconstituted in acetic anhydride (100 μL) and 4-Dimethylaminopyridine (DMAP) in pyridine (100 μl; 1 mg/mL), sealed with safety caps, vortexed and heated (45 min at 80° C.) followed with drying under nitrogen. Dried residues were dissolved in HCl in water (0.1 M; 0.5 mL) and extracted with ethylacetate (2.0 mL). Ethylacetate layer was transferred into a clean glass tube (Borosilicate glass 12×75 mm) and dried under nitrogen. The dry residue was reconstituted in ammonium formate in a mixture of methanol:water (100 μL; 50:50 v/v with 10 mM ammonium formate), tubes were vortexed and liquid was transferred to glass vials with micro-insets and caped. LC-MS/MS analysis was performed on a chromatographic system consisting of two Shimadzu LC-30 AD pumps (Nexcra X2), a CTO 20AC oven operating at 30° C., and a SIL-30 AC-MP autosampler in tandem with a triple quadruple mass spectrometer (8050 series, Shimadzu Scientific Instruments, Inc., Columbia, MD, USA). For chromatographic separation, a Kinetex C18 column (50 mm×2.1 mm; 2.6 μm) (Cat #00B-4462-AN, Phenomenex, Torrance, CA) was used. […] Electrospray ionization in the positive mode was used with multiple reaction monitoring (MRM) for detection of endogenous and stable isotope labeled internal standards. The following transitions were used: m/z 380 [M^+NH4]^+ […] for xylitol, arabitol and ribitol and m/z 382 [M+NH4]^+→305 for [^13C2]-arabitol. The following ion source parameters were applied: nebulizing gas flow, 3 L/min; heating gas flow, 10 L/min; interface temperature, 300° C.; desolvation line temperature, 250° C.; heat block temperature, 400° C.; and drying gas flow, 10 L/min. Accuracy and precision of the method to quantify xylitol (separated from its structural isomers arabitol and ribitol) were assessed by a standard addition method of pure synthetic standard into different plasma pools. […]

In the case of `OC[C@@H](O)[C@H](O)[C@@H](O)CO` [xylitol], in data set [1], the “TRAP6 stimulated platelet-leukocyte aggregates” value is given as “dose-dependent increase”. For the same molecule, the concentration at 30 min in data set [2] (both sexes, human, plasma, oral, 30 min following ingestion of 30 g xylitol, read-out: plasma levels of xylitol, median [IQR]) came to 312000 nM. In addition, the concentration at 4 h in data set [2] (both sexes, human, plasma, oral, 4 h after 30 g xylitol, read-out: plasma xylitol levels, median [IQR]) was 1870 nM. Moreover, the concentration at 6 h in data set [2] (both sexes, human, plasma, oral, 6 h after 30 g xylitol, read-out: plasma xylitol levels, median [IQR]) is 670 nM. In addition, the half-life in data set [2] (both sexes, human, plasma, 30 g xylitol oral) worked out at 12.6 min. Besides, the “time of postprandial xylitol peak levels” value in data set [2] (first 4 subjects) was 30 min. Further, the “time to return of postprandial plasma levels to near baseline” value in data set [2] (healthy volunteers) was ≤ 6 h. In data set [2] (oral ingestion), the “oral absorption in humans” value is listed as “readily absorbed”.

The values above are taken from patent publication US20260219274A1, “POLYOL SWEETNERS AND CARDIOVASCULAR AND THROMBOTIC EVENT RISK” (THE CLEVELAND CLINIC FOUNDATION, priority 2023, published 2026).
